Measured values published in patent US9163018B2, “Method of treatment of age-related macular degeneration (AMD)” (Prana Biotechnology Limited, priority 2006, dated 2015).
pEC50, pIC50: −log10 of the molar value.

Columns and labels:
[1] = Toxicity, visual observations in mice; details: 30 mg/kg; duration and visual observations
[2] = target: T1, Abeta:Zn (25:50 μM) Synthetic Aggregations (Homo sapiens, UniProt P05067); assay: Disaggregation of Abeta:Zn synthetic aggregates (ThT fluorescence); format: biochemical; details: for Disaggregation % Aggregate reduction at 5 μM: 5 μM test compound; for pEC50: Abeta:Zn 25:50 μM aggregates
T1 construct: PB Compound Mediated Dissolution of Aggregated Abeta 1-42; purchased Keck Laboratory, Yale University School of Medicine
Method in brief: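 ThT signal (excitation 450 nm, emission 480 nm) measured after compounds at final 1, 5, 10, 25 and 50 μM acted 2 h at 37 degrees on preformed aggregates. Those aggregates came from 24 h rotating incubation of 25 μM Abeta1-42, 50 μM ZnCl2 and 50 μM ThT in PBS pH 6.6.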

Aβ deposits = details: daily oral gavage 30 mg/kg, 9 weeks, 13-14 months old transgenic mice
[3] = system: M17 human neuroblastoma cells; assay: Cytotoxicity, M17 human neuroblastoma cells; format: cell-based; details: for Cytotox (% viable) M17 cells at 1 μM: 1 μM test compound; for Cytotox (% viable) M17 cells at 10 μM: 10 μM test compound
Method: Assay 3. MTS Assay for Cell Viability
Cell viability is determined using the MTS assay. Culture medium is replaced with fresh neurobasal medium plus B27 supplements minus antioxidants. 1/10th volume MTS solution (Cell Titre 96 Aqueous One, Promega Corporation) and incubated at 37° C., 2 hrs. 200 microliter aliquots are measured with a spectrophotometer at 560 nm.

[4] = Mice plasma concentration after oral dose; format: in vivo; details: 30 min to 4 h after single or repeat oral dose of 30 mg/kg
[5] = system: dityrosine oligomerization; assay: CuTy: inhibition of dityrosine oligomerization; format: biochemical; details: referenced to in-house standard (set as 100% inhibition)
[6] = system: primary cortical neuronal cultured cells; assay: Test compound cytotoxicity, MTS assay, primary cortical neuronal cultures; format: cell-based, mouse; details: for Cytotox (% viable) Neuronal cells at 1 μM: 1 μM test compound; for Cytotox (% viable) Neuronal cells at 10 μM: 10 μM test compound
Method in brief: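 Primary cortical neurons were cultured five days in Neurobasal/B27, then exposed on day six to compounds (from 2.5 mM DMSO stocks) in medium minus antioxidants, in triplicate for 4 days at 37° C. Viability was measured by MTS, 2 h at 37° C, absorbance at 560 nm.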

Aβ 1-42 = target: T2, Aβ 1-42 (Homo sapiens, UniProt P05067); assay: Fluorometric H2O2 assay (inhibition of Abeta H2O2 production); format: biochemical; details: concentration required to inhibit 50% of Abeta H2O2 production; read-out: H2O2 IC50
T2 construct: The reaction solutions contained Aβ 1-42 at concentrations
Method in brief: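 Reactions in PBS pH 7.4 at 37 C for 60 min, containing Aβ, copper and test compound. H2O2 output read as fluorescence of HRP-coupled deacetylated DCF. Fluorescence converted to H2O2 concentration via H2O2 standards.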

T1 sequence (P05067 672-713 limits assumed): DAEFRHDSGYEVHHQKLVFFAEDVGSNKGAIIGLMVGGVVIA
T2 sequence (P05067 672-713 limits assumed): as above

SMILES	Toxicity at 30 mg/kg [1]	Disaggregation % Aggregate reduction at 5 μM [2] [%]	pEC50 [2]	Tg Mice % difference from control in Amyloid plaque abundance (Aβ deposits)	Tg Mice % difference from control in insoluble brain amyloid burden (Aβ deposits)	Tg Mice % difference from control in soluble brain amyloid burden (Aβ deposits)	Cytotox (% viable) M17 cells at 1 μM [3] [%]	Cytotox (% viable) M17 cells at 10 μM [3] [%]	Mice plasma concentration [4]	CuTy % inhibition of dityrosine oligomerization [5]	Cytotox (% viable) Neuronal cells at 1 μM [6] [%]	Cytotox (% viable) Neuronal cells at 10 μM [6] [%]	pIC50 (Aβ 1-42)
Cc1noc(C)c1Cn1cnc2c(O)c(Cl)cc(Cl)c2c1=O [PB-1085]	10 days, none	25	< 4.70	−43%	−34%	increase	104.9	76.2	Up to 3644 ng/ mL ng/mL	CuTy: 90% inhibition	99	72	–
O=C(O)CCCn1cnc2c(O)c(Cl)cc(Cl)c2c1=O [PB 1255]	10 days, none	–	–	–	–	–	109.7	102.9	Up to 17008 ng/ mL ng/mL	CuTy: 125% inhibition	97.9	98.0	6.03
Cn1nccc1-n1cnc2c(O)c(Cl)cc(Cl)c2c1=O [PB 1262]	10 days, none (16/11/05)	–	–	–	–	–	106.5	94.2	Up to 7107 ng/ mL ng/mL	CuTy No effect	104.6	83.7	6.03
Br.CNCc1nc2c(O)c(Cl)cc(Cl)c2c(=O)n1C [PB 1161]	10 days, none	27	< 4.70	−64%	No change	No change	101.4	112.5	Up to 510.4 ng/mL	100% inhib	105.4	103.9	–
O=c1c2c(Cl)cc(Cl)c(O)c2ncn1C1=CCC=C1 [PB 1244]	10 days, none	–	–	–	–	–	125.7	114.8	Up to 1477.4 ng/mL	CuTy: 10% inhibition	–	–	5.88
CC(C)c1cnc2c(O)cccn2c1=O [PB 1135]	10 days, none	31	< 4.70	–	–	–	99.7	45.6	Up to 409 ng/ml ng/mL	CuTy: 90% inhibition	–	–	6.57
O=c1c2c(Cl)cc(Cl)c(O)c2ncn1Cc1cccnc1 [PB 1240]	10 days, none	–	–	–	–	–	106.4	100.2	Up to 4023.4 ng/mL	CuTy: 60% inhibition	–	–	6.49
O=C(O)Cn1cnc2c(O)c(Cl)cc(Cl)c2c1=O [PB 1249]	10 days, none	–	–	–	–	–	105	100.7	Up to 4830.2 ng/ml ng/mL	CuTy: 100% inhibition	–	–	6.31
O=c1c2c(Cl)cc(Cl)c(O)c2ncn1Cc1ccncc1 [PB 1241]	10 days, none	–	–	–	–	–	105.4	90.4	Up to 2181.1 ng/mL	CuTy: 80% inhibition	98.4	90.9	6.36
O=c1c2c(Cl)cc(Cl)c(O)c2ncn1Cc1ccn2ccnc2c1 [PB 1252]	10 days, none	–	–	–	–	–	105.4	105.1	Up to 1465.4 ng/mL	CuTy: 50% inhibition	94.6	103.1	6.14
O=c1c2c(Cl)cc(Cl)c(O)c2ncn1CCNCc1ccncc1 [PB 1264]	10 days, none	–	–	–	–	–	103	104.8	Up to 1639.8 ng/mL	CuTy: 100% inhibition	–	–	6.35
O=c1c2c(Cl)cc(Cl)c(O)c2ncn1-c1ccccn1 [PB 1242]	10 days, none	–	–	–	–	–	102.7	102.6	Up to 144.2 ng/ mL ng/mL	CuTy: 50% inhibition	–	–	6.55
Cn1ccnc1Cn1cnc2c(O)c(Cl)cc(Cl)c2c1=O [PB 1243]	10 days, none	–	–	–	–	–	112	122.3	Up to 13214.8 ng/mL	CuTy: 60% inhibition	–	–	6.42
O=c1c2c(Cl)cc(Cl)c(O)c2ncn1Cc1ccccn1 [PB-1077]	10 days, none	24	< 4.70	−30%	No change	No change	97.7	91	Up to 984 ng/ mL in mice ng/mL	CuTy: 50% inhibition	99	98	–
O=c1c2c(Cl)cc(Cl)c(O)c2ncn1Cc1cn2ccccc2n1 [PB 1239]	10 days, none	–	–	–	–	–	109.2	98.2	Up to 98.3 ng/ mL ng/mL	CuTy: 50% inhibition	–	–	6.32
O=c1c2c(Cl)cc(Cl)c(O)c2ncn1CC1CC1 [PB-1076]	11 days, none	15.1	< 4.70	−29%	−26%	−37%	96.2	76.8	Up to 2698 ng/ mL in mice ng/mL	100% inhibit	116	105	–
Br.CN(C)Cc1nc2c(O)c(Cl)cc(Cl)c2c(=O)n1C [PB 1269]	10 days, 1/4 mild signs	–	–	–	–	–	109.3	114.7	Up to 492.1 ng/ml ng/mL	CuTy: 110% inhibition	–	–	6.55
CN(C)Cc1nc2c(O)c(Cl)cc(Cl)c2c(=O)n1CC1CC1.Cl [PB 1267]	10 days, none	–	–	–	–	–	94.4	74.5	Up to 1166.6 ng/ml ng/mL	CuTy: 110% inhibition	–	–	6.43
Br.CN1CCCC1Cn1cnc2c(O)c(Cl)cc(Cl)c2c1=O (stereo not shown) [PB 1253]	10 days, none	–	–	–	–	–	106.6	93.9	Up to 382.5 ng/ mL ng/mL	CuTy: 70% inhibition	–	–	6.37
Cc1nc(Cn2cnc3c(O)c(Cl)cc(Cl)c3c2=O)cs1 [PB-1084]	10 days, none	23.4	4.39	decrease	No change	−29%	97	95.7	Up to 2439 ng/ mL ng/mL	CuTy: 75% inhibition	100	93	–
